Activity calls are given as the source filed them. No cut-off for these calls is given here.
How the values were obtained:
A549 [1] = test: Inhibition of Nuclear factor erythroid 2-related factor 2 5'-untranslated region guanine-rich DNA sequence in human A549 cells assessed as suppression of AKR1B10 gene expression at 10 nM measured up to 48 hrs by RT-PCR analysis; format: cell-based
[2] = Stabilization of ssGQPLEX-G/T-1,2,3,4 DNA by circular dichroism method
A549 [3] = test: Inhibition of Nrf2 5'-untranslated region guanine-rich DNA sequence in human A549 cells assessed as potentiation of etoposide-induced apoptosis by measuring increase cleaved PARP protein level in at 10 nM after 24 hrs by Western blot analysis; format: cell-based
[4] = Binding affinity to ssGQPLEX DNA (unknown origin) assessed as dissociation constant by isothermal titration calorimetric method
A549 [5] = test: Inhibition of Nrf2 5'-untranslated region guanine-rich DNA sequence in human A549 cells assessed as potentiation of etoposide-induced cytotoxicity by measuring increase in ROS production at 10 nM after 24 hrs by DCFH-DA based assay; format: cell-based
A549 [6] = test: Inhibition of Nrf2 5'-untranslated region guanine-rich DNA sequence in human A549 cells assessed as potentiation of etoposide-induced apoptosis by measuring increase cleaved caspase-3 protein level in at 10 nM after 24 hrs by Western blot analysis; format: cell-based
[7] = Stabilization of dsGQPLEX DNA (unknown origin) by circular dichroism method
A549 [8] = test: Inhibition of Nuclear factor erythroid 2-related factor 2 5'-untranslated region guanine-rich DNA sequence in human A549 cells assessed as suppression of AKR1C3 gene expression at 10 nM measured up to 48 hrs by RT-PCR analysis; format: cell-based
[9] = Stabilization of ssGQPLEX DNA (unknown origin) assessed as increase in the peak of 264 nm wavelength by circular dichroism method
A549 [10] = test: Inhibition of Nrf2 5'-untranslated region guanine-rich DNA sequence in human A549 cells assessed as potentiation of etoposide-induced cytotoxicity by measuring increase in apoptosis at 10 nM after 24 hrs by TUNEL assay; format: cell-based
[11] = Stabilization of ssGQPLEX-G/T-1,3 DNA (unknown origin) by circular dichroism method
A549 [12] = test: Inhibition of Nuclear factor erythroid 2-related factor 2 5'-untranslated region guanine-rich DNA sequence in human A549 cells assessed as reduction in NRF2 mRNA levels at 10 nM after 12 to 36 hrs by RT-PCR analysis; format: cell-based
[13] = Stabilization of ssGQPLEX-delta3,4 DNA lacking third and fourth G blocks (unknown origin) by circular dichroism method
[14] = Stabilization of ssGQPLEX-delta1,2 DNA lacking first and second G blocks (unknown origin) by circular dichroism method
[15] = Stabilization of ssGQPLEX-G/T-2,4 DNA (unknown origin) by circular dichroism method
A549 [16] = test: Inhibition of Nuclear factor erythroid 2-related factor 2 5'-untranslated region guanine-rich DNA sequence in human A549 cells assessed as suppression of GCLC gene expression at 10 nM measured up to 48 hrs by RT-PCR analysis; format: cell-based
A549 [17] = test: Cytotoxicity against human A549 cells at 1 nM to 10 uM after 24 hrs by MTT assay; format: cell-based; details: a549, 24 h, 0.001 µM
A549 [18] = test: Inhibition of Nuclear factor erythroid 2-related factor 2 5'-untranslated region guanine-rich DNA sequence in human A549 cells assessed as reduction in Nrf2 protein level at 10 nM incubated for 12 to […] hrs by Western blot analysis; format: cell-based
A549 [19] = test: Inhibition of Nrf2 5'-untranslated region guanine-rich DNA sequence in human A549 cells assessed as potentiation of etoposide-induced cytotoxicity by measuring decrease in cell viability at 10 nM after 24 hrs by MTT assay; format: cell-based

Compound: COC(=O)C[C@](O)(CCCC(C)(C)O)C(=O)O[C@@H]1C(OC)=C[C@]23CCCN2CCc2cc4c(cc2[C@H]13)OCO4 [OMACETAXINE MEPESUCCINATE]
- inhibition (A549 [1]): Active
- Activity [2]: inactive
- inhibition (A549 [3]): Active
- Kd [4]: 17 µM
- inhibition (A549 [5]): Active
- inhibition (A549 [6]): Active
- Activity [7]: inactive
- inhibition (A549 [8]): Active
- Activity [9]: Active
- inhibition (A549 [10]): Active
- Activity [11]: inactive
- inhibition (A549 [12]): Active
- Activity [13]: inactive
- Activity [14]: inactive
- Activity [15]: inactive
- inhibition (A549 [16]): Active
- Activity (A549 [17]): Non-Toxic
- inhibition (A549 [18]): Active
- inhibition (A549 [19]): Active

Source: ChEMBL document CHEMBL4433256, “Homoharringtonine stabilizes secondary structure of guanine-rich sequence existing in the 5'-untranslated region of Nrf2” (Bioorg Med Chem Lett, 2019)
